From patent publication US7473682B2, “Angiogenic peptides and uses thereof” (Ramot at Tel Aviv University Ltd., priority 2003, dated 2009)
“Also recorded” adds a separate entry of the source.

What was measured:
HUVECs (ECs) [1] = test: Proliferation of ECs (HUVECs) in the presence of synthetic peptides ([^3H]-Thymidine uptake); format: cell-based, human; conditions: for Highest proliferative response of ECs, fold increase / [^3H]-Thymidine uptake in ECs: normoxia; for [^3H]-Thymidine uptake in ECs: 0.05-100 ng/ml; for [^3H]-Thymidine uptake in ECs / [^3H]-Thymidine uptake / proliferation of ECs under and following hypoxia: 24 hours
Method: Proliferation of ECs in the presence of synthetic peptides—ECs were incubated in the presence of EBM-2 medium containing supplements (Cambrex BioWhittaker Cell Biology Products, Walkersville, USA). Cells were passaged every 3 days by harvesting cells with 0.25% […] (Biological Industries) and re-plating the cells at a concentration of 10^4 cells per a 25 cm^2 flask. ECs from passage 3 were used for proliferation experiments.
ECs (12×10^3 cells/well) were seeded on 24-well plates in EBM-2 medium containing supplements. Following a 24-hours incubation, cells were subjected to 24 hours of starvation in supplements-free medium (SFM). Synthetic peptides (SP, LT, TR, and VL) were each added at concentrations of 0.05, 0.1, 1, 10, or 100 ng/ml for 24 hours. For a proliferation assay, 2 μCi/well of [^3H]-Thymidine (SIGMA, Rehovot, Israel) were added for a 6-hour incubation, following which the plates were washed 3 times with PBS. For cell lysis, the plates were incubated for 15 minutes at 37° C. with 300 μl/well of 0.5 M NaOH. Subsequently, cell lysates were transferred to scintillation vials containing 2 ml of scintillation liquid (Ultima Gold, Packard Bioscience, Meriden, Conn., USA) and counted (cpm/min) in a β counter (Scintillation β Counter 1600 TR, Packard A Camberra Company, Meriden, Conn., USA).
(§1) Synthetic peptides induced proliferation or migration after and under hypoxia treatment—Cell proliferation or migration assays were performed as described in Example 3, hereinabove, except that cells were divided to 3 groups: control cells, cells after exposure to hypoxia conditions or cells proliferating under hypoxia conditions. For cell proliferation assays, ECs were incubated with QF, LT and SP and MVECs were incubated with LT, SP, and YR. For cell migration assays, ECs were incubated with EBM-2 and MVECs were incubated with EBM-MV media.

MVECs = test: Tube formation assay, MVECs; format: cell-based; conditions: for MVEC tube formation compared to untreated cells: normoxic conditions, 10 ng/ml, matrigel
Method: (§2) Tube formation assay—ECs from passage 3 or MVECs from passage 4 were harvested with trypsin and incubated for 24 hours in SFM. Twenty-four—well plates were pre-coated with 250 μl of Cultrex Basement Membrane Extract with reduced growth factors (R&D Systems, Minneapolis, Minn., USA). Five hundred microliters of medium containing 10^6 cells were transferred to the coated wells. Synthetic peptides, FGF, YR, QF, or VL were added to ECs, and VEGF, YR, QF, or VL were added to MVECs at 10 ng/ml. Plates were incubated for 24 hours at 37° C. in the presence of 5% CO2. HUVECs and MVECs were photographed under a light microscope at 20 hours and 8 hours, respectively.
(§3) Tube formation assay after and under hypoxia treatment—Tube formation assay was performed as described in Example 3, hereinabove, except that the cells were divided to 3 groups: control cells, cells after exposure to hypoxia conditions, and cells on matrigel basement that form tubes under hypoxia treatment.

HUVECs (ECs) [2] = test: Tube formation assay, ECs (HUVECs); format: cell-based, human; conditions: for EC tube formation compared to untreated cells: normoxic conditions, 10 ng/ml, matrigel
Method: as §2, §3

[3] = tested on: dermal microvascular endothelial cells (MVECs); test: Proliferation of dermal microvascular endothelial cells (MVECs) in the presence of synthetic peptides; format: cell-based; conditions: for Increase of MVECs proliferation response / [^3H]-Thymidine uptake in MVECs: normoxia; for [^3H]-Thymidine uptake in MVECs: 0.1-100 ng/ml, 24 hours
Method: Proliferation of dermal microvascular endothelial cells (MVECs) in the presence of synthetic peptides—MVECs were incubated with synthetic peptides (LT, SP, and YR) as described above for HUVECs (ECs), except that the MVECs were seeded in EBM-MV medium containing supplements (Cambrex BioWhittaker Cell Biology Products) and MVECs from passage 4 (rather than 3) were used for proliferation experiments.
as §1

ECs (HUVECs) = test: EC migration assay with peptide-presenting phages (Chemicon QCM 96-well Migration Assay); format: cell-based, human; conditions: 5 hours; for Migration of activated ECs (phages with ECs in migration chamber): 10^5 or 10^6 phages per well
Method: EC migration assay—EC migration was evaluated by the Chemicon QCM 96-well Migration Assay (Chemicon International, Temecula, Calif., USA) according to the manufacturer's instructions. Briefly, the kit's migration chamber comprises an insert membrane with 8 μm pores and a feeder tray containing the peptides as chemoattractants. Cell migration was evaluated by placing the cells in the migration chamber and following their migration to the bottom of the membrane.
For the migration/chemoattractant assay, ECs from passage 3 were incubated for 24 hours on gelatin-coated plates in the presence of the M199 SFM. Following trypsinization, 2×10^4 ECs were incubated for 5 hours in each of the 96 wells of the migration chamber. The peptide-presenting phages (10^5 or 10^6) were added to the feeder tray to chemoattractant the cells without being in physical contact with the cells. Cells which reached the bottom of the membrane (i.e., migratory cells) were dissociated from the membrane following the incubation with a cell detachment buffer. The migratory cells were subsequently lysed and detected by the molecular probe CyQuant GR dye which exerts green fluorescent enhancement when bound to cellular nucleic acid.
For activation migration assays, 10^5 or 10^6 peptide-presenting phages were incubated (for 5 hours) with ECs in the migration chamber. NO phages (unmodified M13 phages) served as negative control in both migration assays. Results were determined by a fluorescent ELISA reader at 480/520 nm (Fluostar BMG Lab Teck) and are presented in net values from which the control values were subtracted.

rat ischemic hind limb = test: Rat ischemic hind-limb model, laser-Doppler blood flow; format: in vivo; conditions: 600 μg peptide, days 2, 6, 9 and 13
Method: Rat ischemic hind-limb model and laser-Doppler imager analysis—A rat ischeric hind limb model was used for evaluation of the in vivo potential of angiogenesis induced by the selected synthetic peptides. Ischemia was created in the rat left hind limb by ligation the femoral artery. The right hind limb served as a control. A day after the operation each of the peptides was injected into two sites close to the ligation and one site distal to the ligation. Each rat was treated with each of the peptides in a total amount of 600 μg.
The blood flow was measured using a Laser Doppler Blood Flow analyzer (MoorLDI, Moor Instrument, Wilmington, Del.) at 2, 6, 9 and 13 days after peptides injections. The average perfusion of each limb was computed and blood flow was expressed as the ischemic (left)/control (right) blood flow ratio.

[4] = under hypoxia conditions, 18 hours

Row | Sequence | Increase of EC proliferation after hypoxia (HUVECs (ECs) [1]; 10 ng/ml) [fold] | Highest proliferative response of ECs, fold increase (HUVECs (ECs) [1]; 10 ng/ml) [fold] | [^3H]-Thymidine uptake in ECs (HUVECs (ECs) [1]) | [^3H]-Thymidine uptake / proliferation of ECs under and following hypoxia (HUVECs (ECs) [1]) | MVEC tube formation compared to untreated cells (MVECs) | EC tube formation compared to untreated cells (HUVECs (ECs) [2]) | [^3H]-Thymidine uptake / proliferation of MVECs after and under hypoxia [3] | Increase of MVECs proliferation response ([3]; 1 ng/ml) [fold] | [^3H]-Thymidine uptake in MVECs [3] | Migration of activated ECs (phages with ECs in migration chamber) (ECs (HUVECs)) | EC migration, phages as chemoattractants on feeder tray (ECs (HUVECs); 10^6 phages per well) | Median flux of the ischemic leg/control leg (rat ischemic hind limb) [%] | further results
1 | LLADTTHHRPWT (Phage displayed peptide) [LT] | 3.5 | 1.7 | significant dose-dependent increase | significant dose-dependent increase | did not induce tube formation | did not induce tube formation | significant dose-dependent increase | 1.8 | significant increase | induced migration | induce migration as chemoattractants |  | Increase of EC proliferation under hypoxia (HUVECs (ECs) [1]; under hypoxia, 1 ng/ml): 1.7 fold; Increase of MVECs proliferation after hypoxia ([3]; 1 ng/ml): 1.7 fold; Increase of MVECs proliferation under hypoxia ([3]; 10 ng/ml): 1.7 fold
2 | VPWMEPAYQRFL (Phage displayed peptide) [VL] |  |  | significant dose-dependent increase |  | significant increase in tube formation | increased tube formation |  |  |  |  |  |  | Highest proliferative response of ECs, fold increase (HUVECs (ECs) [1]; 1 ng/ml): 1.8 fold
3 | YPHIDSLGHWRR (Phage displayed peptide) [YR] |  |  |  |  | significant increase in tube formation | increased tube formation |  | 1.7 | significant increase |  |  | 108.2 | EC migration, phages as chemoattractants on feeder tray (ECs (HUVECs); 10^5 phages per well): induce migration as chemoattractants
4 | SAHGTSTGVPWP (Phage displayed peptide) | 2 | 1.6 | significant dose-dependent increase | significant dose-dependent increase | did not induce tube formation | did not induce tube formation | significant dose-dependent increase | 1.4 | significant increase |  | induce migration as chemoattractants |  | MVEC tube formation under hypoxia (MVECs; [4]): effective only in tube formation under hypoxia conditions; EC tube formation under hypoxia (HUVECs (ECs) [2]; [4]): effective only in tube formation under hypoxia conditions; Increase of MVECs proliferation after hypoxia ([3]; 10 ng/ml): 1.5 fold; Increase of MVECs proliferation under hypoxia ([3]; 1 ng/ml): 1.9 fold
5 | TLPWLEESYWRP (Phage displayed peptide) [TR] |  | 1.8 | significant dose-dependent increase |  |  |  |  |  |  |  | induce migration as chemoattractants |  | 
6 | QPWLEQAYYSTF (Phage displayed peptide) [QF] |  |  |  | did not show increase in proliferation | significant increase in tube formation | increased tube formation; also recorded: significant increase in tube formation | did not show increase proliferation |  |  | induced migration | induce migration as chemoattractants | 112.5 | 
